The record followed here is US8809280B2, “Therapeutic peptides” (Lytix Biopharma AS, priority 2009, dated 2014).

Structures are written as SMILES. Values after ≈ are worked out from the molar mass of the structure shown. Values joined by “and” are separate entries in the source; they are usually repeats but may differ in a detail not shown here. Equal entries are not always repeated. Where two headings read alike, the source gives them in different places. Starred links: 1 amine or outer side, 2 acyl side, 3 side chain; linkers in the order of their positions; H or OH if unused. Non-standard residues stand in square brackets, D forms with d. Residues, ends and D or L forms follow the SMILES beside them. X1 = Cc1cc(C)cc(CC(CN[*:1])(Cc2cc(C)cc(C)c2)C(=O)[*:2])c1; X4 = O=C(C(CN[*:1])(Cc1ccc(F)cc1)Cc1ccc(F)cc1)[*:2] Where only a bound is given, the exact number is not on record here.

One may read the IC50 as the concentration at which inhibition is half-maximal. One may read the EC50 as the midpoint of the concentration-response curve.

Common to all, as to type: cell-based
One assay concerns MRC-5. Kind of assay: Toxicity assay MRC-5. As to conditions: highest concentration tested 500 μg/ml; for IC50: Homo sapiens, MRC5, Example 2; for Toxicity MRC-5: Example 2. As for the experimental part:
Cells for Toxicity Studies Used MRC-5 and human RBC MRC-5 assay: 500 μg/ml

A further assay deals with A20. Kind of assay: cells. As to conditions: for IC50: Mus musculus, A20, Example 2, read-out: Anticancer potency (IC50) A20; for Anti-Cancer Selectivity MRC-5/A20: ratio of MRC-5 to A20 values; for Anti-Cancer Selectivity RBC/A20: ratio of RBC EC50 to A20 IC50. As for the experimental part:
Cancer Cell Lines A20 or MethA Anticancer assays: 500 μg/ml

In assay [1] the test system is Staphylococcus aureus (ATTC 25923). Kind of assay: microbe, parasite or virus in culture. As to conditions: Example 2, values separated by / are repeat tests; for MIC: Staphylococcus aureus, read-out: Antimicrobial potency (MIC) S. aureus. In outline: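 Di-TFA salts tested in duplicate at 0.5–200 μg/ml against exponential-phase bacteria at 2×10^6 cfu/ml grown in 2% peptone water. Growth judged by well turbidity, with no-peptide and gentamicin controls.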

The subject of assay [2] is Escherichia coli (ATTC 25922). Kind of assay: microbe, parasite or virus in culture. As to conditions: Example 2, values separated by / are repeat tests; for MIC: Escherichia coli, read-out: Antimicrobial potency (MIC) E. coli. In outline:
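Broth dilution in 2% Bacto Peptone water, inoculum 2×10^6 cfu/ml of exponential-phase bacteria; compounds (di-TFA salts) tested in duplicate at 200 down to 0.5 μg/ml. Growth judged by well turbidity, with no-peptide negative and gentamicin positive controls.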

Assay [3] concerns methicillin resistant Staphylococcus epidermidis (ATCC 27626). Put plainly: microbe, parasite or virus in culture. As to conditions: Example 2, values separated by / are repeat tests; for MIC: Staphylococcus epidermidis, ATCC 27626 / MRSE, read-out: Antimicrobial potency (MIC) MRSE. In outline: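 Exponentially grown bacteria (2% peptone water) at 2×10^6 cfu/ml exposed in duplicate to di-TFA salts at 0.5–200 μg/ml. Growth or no growth judged by well turbidity; no-peptide and gentamicin controls included.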

For another assay, the system named is human red blood cells. Put plainly: cells. As to conditions: Homo sapiens, Erythrocyte; Example 2; highest concentration tested 1000 μg/ml; * low solubility in the test media; read-out: Toxicity RBC (EC50). In outline:
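Washed heparinized RBCs, diluted to 10% hematocrit then to 1% v/v final, incubated with compounds in PBS (1–1000 μg/mL) for 1 h at 37 °C with agitation. Hemoglobin release read at 405 nm against PBS (0%) and 0.1% Triton X-100 (100%); value reported is concentration giving 50% hemolysis.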

Assay [4] has as its system methicillin resistant Staphylococcus aureus (ATCC 33591). Put plainly: microbe, parasite or virus in culture. As to conditions: Example 2, values separated by / are repeat tests; for MIC: Staphylococcus aureus, ATCC 33591 / MRSA, read-out: Antimicrobial potency (MIC) MRSA. In outline: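 Di-TFA salts tested in duplicate at 200 down to 0.5 μg/ml against exponentially grown bacteria at 2×10^6 cfu/ml. Growth judged by well turbidity, with no-peptide and gentamicin controls.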

Setting [5] is: Example 2, highest concentration tested 500 μg/ml, * low solubility in the test media (Table 2).
Where [6] appears, read: highest concentration tested 500 μg/ml, * low solubility in the test media (Table 2).

`NCCNC(=O)C(CN)(CCC1CCCCC1)CCC1CCCCC1` [Compound 3, N-(2-aminoethyl)-2-(aminomethyl)-4-cyclohexyl-2-(2-cyclohexylethyl)butanamide] gave an IC50 with MRC-5 of less than 10 µg/mL. Also, in the assay with A20 (setting [5]), the “Anticancer potency (IC50) A20” value came to 1.7 µg/mL. In addition, in the assay on A20 (setting [6]), the half-maximal inhibitory concentration (IC50) was less than 3.35 µg/mL. In the assay on A20, the “Anti-Cancer Selectivity MRC-5/A20” value is “(<5.9)” and the “Anti-Cancer Selectivity RBC/A20” value worked out at 36.5. Also, in assay [1], the “Antimicrobial potency (MIC) S. aureus” value is 10 µg/mL and the MIC was 7.5 µg/mL (≈ 21.3 µM). In assay [2], the MIC was found to be 15 µg/mL (≈ 42.7 µM) and the “Antimicrobial potency (MIC) E. coli” value came to 10 µg/mL. In addition, in assay [3], the “Antimicrobial potency (MIC) MRSE” value worked out at 5 µg/mL and the MIC was 2.5 µg/mL (≈ 7.11 µM). Also, the EC50 with human red blood cells was found to be 62 µg/mL (≈ 176 µM).
Consider `NCCNC(=O)C(CN)(Cc1ccccc1)Cc1ccccc1` [Compound 4], for which the IC50 in the assay on MRC-5 was determined as 261 µg/mL (≈ 838 µM); with A20 (setting [6]) it was 68.6 µg/mL (≈ 220 µM). Further, the “Anti-Cancer Selectivity MRC-5/A20” value in the assay on A20 amounted to 3.8. In addition, the MIC in assay [4], in assay [1], in assay [2] and in assay [3] was greater than 200 µg/mL each time. In addition, in the assay with human red blood cells, the EC50 was greater than 1000 µg/mL.
As for `NCCNC(=O)C(CN)(CCCc1ccccc1)CCCc1ccccc1` [Compound 6, N-(2-aminoethyl)-2-(aminomethyl)-5-phenyl-2-(3-phenylpropyl)pentanamide], the values for the IC50 with MRC-5 and in the assay on A20 (setting [6]) were 35 µg/mL (≈ 95.2 µM) and 8.3 µg/mL (≈ 22.6 µM), respectively. In addition, the “Anti-Cancer Selectivity MRC-5/A20” value with A20 stood at 4.2. For the same molecule, the “Anti-Cancer Selectivity RBC/A20” value with A20 is on record as 98.8. For the same molecule, the MIC in assay [4] amounted to 35 µg/mL (≈ 95.2 µM); in assay [1], 35 µg/mL (≈ 95.2 µM); in assay [2], 200 µg/mL (≈ 544 µM); in assay [3], 15 µg/mL (≈ 40.8 µM). In addition, in assay [1], the “Antimicrobial potency (MIC) S. aureus” value turned out to be 50 µg/mL. In addition, in the assay on human red blood cells, the EC50 turned out to be 820 µg/mL (≈ 2230 µM).
`CC(C)c1ccc(CC(CN)(Cc2ccc(C(C)C)cc2)C(=O)NCCN)cc1` [Compound 10, 3-amino-N-(2-aminoethyl)-2,2-bis(4-isopropylbenzyl)propanamide] came in with an IC50 in the assay with MRC-5 of less than 6.67 µg/mL. In the assay on A20, the “Anti-Cancer Selectivity MRC-5/A20” value is reported as “(<4.8)” and the “Anti-Cancer Selectivity RBC/A20” value is reported as 33.6. Further, in assay [4], the “Antimicrobial potency (MIC) MRSA” value is 10 µg/mL and the MIC stood at 5 µg/mL (≈ 12.6 µM). Moreover, in assay [1], the “Antimicrobial potency (MIC) S. aureus” value turned out to be 10 µg/mL and the MIC amounted to 5 µg/mL (≈ 12.6 µM). In addition, the MIC in assay [3] came to 5 µg/mL (≈ 12.6 µM). In addition, the EC50 in the assay with human red blood cells was determined as 47 µg/mL (≈ 119 µM).
Consider `Cc1cc(C)cc(CC(CN)(Cc2cc(C)cc(C)c2)C(=O)NCCN)c1` [Compound 12, 3-amino-N-(2-aminoethyl)-2,2-bis(3,5-dimethylbenzyl)propanamide], for which the 50% inhibitory concentration (IC50) was 10 µg/mL (≈ 27.2 µM) in the assay on MRC-5 and less than 5 µg/mL in the assay with A20 (setting [6]). Also, the “Anticancer potency (IC50) A20” value with A20 (setting [5]) is less than 10 µg/mL. The “Anti-Cancer Selectivity MRC-5/A20” value with A20 is reported as “(>2 )”. For the same molecule, the MIC was 35 µg/mL (≈ 95.2 µM) in assay [4], 35 µg/mL (≈ 95.2 µM) in assay [1], 50 µg/mL (≈ 136 µM) in assay [2] and 5 µg/mL (≈ 13.6 µM) in assay [3]. Further, the “Antimicrobial potency (MIC) E. coli” value in assay [2] turned out to be 100 µg/mL. Further, the “Antimicrobial potency (MIC) MRSE” value in assay [3] is 10 µg/mL.
On to `NCCCC[C@@H](N)C(=O)N[C@H](CCCCN)C(=O)N[C@H](Cc1c[nH]c2ccccc12)C(=O)NCC(Cc1ccc2ccccc2c1)(Cc1ccc2ccccc2c1)C(=O)N[C@@H](Cc1c[nH]c2ccccc12)C(=O)N[C@@H](CCCCN)C(=O)N[C@@H](CCCCN)C(N)=O` [Compound 18, (R)-N-((2R,9S,12S,15S)-9-((1H-indol-3-yl)methyl)-19-amino-12-(4-aminobutyl)-15-carbamoyl-1-(1H-indol-3-yl)-6,6-bis(naphthalen-2-ylmethyl)-3,7,10,13-tetraoxo-4,8,11,14-tetraazanonadecan-2-yl)-6-amino-2-((R)-2,6-diaminohexanamido)hexanamide], for which, in the assay on MRC-5, the “Toxicity MRC-5” value was 103 µg/mL. In the assay with A20, the “Anticancer potency (IC50) A20” value was determined as 24 µg/mL and the “Anti-Cancer Selectivity MRC-5/A20” value is on record as 4.3.
For `NCCCC[C@@H](N)C(=O)N[C@H](CCCCN)C(=O)N[C@H](Cc1c[nH]c2ccccc12)C(=O)NCC(Cc1ccc(F)cc1)(Cc1ccc(F)cc1)C(=O)N[C@@H](Cc1c[nH]c2ccccc12)C(=O)N[C@@H](CCCCN)C(=O)N[C@@H](CCCCN)C(N)=O` [Compound 19, (R)-N-((2R,9S,12S,15S)-9-((1H-indol-3-yl)methyl)-19-amino-12-(4-aminobutyl)-15-carbamoyl-6,6-bis(4-fluorobenzyl)-1-(1H-indol-3-yl)-3,7,10,13-tetraoxo-4,8,11,14-tetraazanonadecan-2-yl)-6-amino-2-((R)-2,6-diaminohexanamido)hexanamide] (H-[dK][dK][dW][X4]WKK-NH2), the “Toxicity MRC-5” value in the assay on MRC-5 is greater than 500 µg/mL. In the assay with A20, the “Anticancer potency (IC50) A20” value worked out at 197 µg/mL and the “Anti-Cancer Selectivity MRC-5/A20” value is on record as “(>2.5)”.
The corresponding values for `NCCCC[C@@H](N)C(=O)N[C@H](CCCCN)C(=O)N[C@H](Cc1c[nH]c2ccccc12)C(=O)NCC(Cc1ccc(C(F)(F)F)cc1)(Cc1ccc(C(F)(F)F)cc1)C(=O)N[C@@H](Cc1c[nH]c2ccccc12)C(=O)N[C@@H](CCCCN)C(=O)N[C@@H](CCCCN)C(N)=O` [Compound 20, (R)-N-((2R,9S,12S,15S)-9-((1H-indol-3-yl)methyl)-19-amino-12-(4-aminobutyl)-15-carbamoyl-1-(1H-indol-3-yl)-3,7,10,13-tetraoxo-6,6-bis(4-(trifluoromethyl)benzyl)-4,8,11,14-tetraazanonadecan-2-yl)-6-amino-2-((R)-2,6-diaminohexanamido)hexanamide] are 260 µg/mL, 37 µg/mL and 7.0.
Take `CC(C)(C)c1ccc(CC(CNC(=O)[C@@H](Cc2c[nH]c3ccccc23)NC(=O)[C@@H](CCCCN)NC(=O)[C@H](N)CCCCN)(Cc2ccc(C(C)(C)C)cc2)C(=O)N[C@@H](Cc2c[nH]c3ccccc23)C(=O)N[C@@H](CCCCN)C(=O)N[C@@H](CCCCN)C(N)=O)cc1` [Compound 21, (R)-N-((2R,9S,12S,15S)-9-((1H-indol-3-yl)methyl)-19-amino-12-(4-aminobutyl)-6,6-bis(4-tert-butylbenzyl)-15-carbamoyl-1-(1H-indol-3-yl)-3,7,10,13-tetraoxo-4,8,11,14-tetraazanonadecan-2-yl)-6-amino-2-((R)-2,6-diaminohexanamido)hexanamide]: in the assay on MRC-5, the “Toxicity MRC-5” value is 42 µg/mL and 55.2 µg/mL. The “Anti-Cancer Selectivity MRC-5/A20” value in the assay on A20 is 2.9 and 3.2.
For `Cc1cc(C)cc(CC(CNC(=O)[C@@H](Cc2c[nH]c3ccccc23)NC(=O)[C@@H](CCCCN)NC(=O)[C@H](N)CCCCN)(Cc2cc(C)cc(C)c2)C(=O)N[C@@H](Cc2c[nH]c3ccccc23)C(=O)N[C@@H](CCCCN)C(=O)N[C@@H](CCCCN)C(N)=O)c1` [Compound 22, (R)-N-((2R,9S,12S,15S)-9-((1H-indol-3-yl)methyl)-19-amino-12-(4-aminobutyl)-15-carbamoyl-6,6-bis(3,5-dimethylbenzyl)-1-(1H-indol-3-yl)-3,7,10,13-tetraoxo-4,8,11,14-tetraazanonadecan-2-yl)-6-amino-2-((R)-2,6-diaminohexanamido)hexanamide] (H-[dK][dK][dW][X1]WKK-NH2), the “Toxicity MRC-5” value in the assay with MRC-5 is 237 µg/mL and 205 µg/mL. Moreover, the “Anti-Cancer Selectivity MRC-5/A20” value in the assay on A20 was 7.4 and 5.1.
